Data as given in the supplement of paper PMC10307832.

Tests used:
Experiment in all cases: relative viability (nuclei count vs DMSO), 5 days (fraction); higher = more cells survive
[1] = compound: CC(C)C[C@@H](C(=O)N[C@H](C(=O)OC1CCCC1)c1ccccc1)[C@H](O)C(=O)NO [Tosedostat] + CC(C)C[C@H](NC(=O)[C@H](Cc1ccccc1)NC(=O)c1cnccn1)B(O)O [Bortezomib] (partner 0.002 µM)
In short: (§1)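 Cells from lung cancer lines were seeded into 1536-well plates and, one day later, dosed by pin tool. Treatments were either a single drug or a fixed dose of an anchor drug with five library-drug doses (not always all listed) in √10 steps. After 5 days, nuclei were stained in a one-step fixation (final 0.05% Triton X-100, 1% formaldehyde, 1 ug/ml Hoechst) and counted on 4× images, and relative viability is the treated-to-vehicle nuclei ratio, as the median of duplicate plates.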

[2] = compound: CC1=NN=C(O1)C2=NN=C(C=C2)N3CCC(CC3)OC4=C(C=CC(=C4)F)Cl + Cc1nc(Nc2ncc(C(=O)Nc3c(C)cccc3Cl)s2)cc(N2CCN(CCO)CC2)n1 [Dasatinib] (partner 0.075 µM)
In short: as §1

[3] = compound: CC(C)C[C@@H](C(=O)N[C@H](C(=O)OC1CCCC1)c1ccccc1)[C@H](O)C(=O)NO [Tosedostat] + O=C(c1cc(Cc2n[nH]c(=O)c3ccccc23)ccc1F)N1CCN(C(=O)C2CC2)CC1 [Olaparib] (partner 8 µM)
In short: as §1

[4] = compound: CC(C)C[C@@H](C(=O)N[C@H](C(=O)OC1CCCC1)c1ccccc1)[C@H](O)C(=O)NO [Tosedostat] + CS(=O)(=O)N1CCN(Cc2cc3nc(-c4cccc5[nH]ncc45)nc(N4CCOCC4)c3s2)CC1 [Pictilisib] (partner 1 µM)
In short: as §1

Row | Cell Line | relative viability ([1]; first compound 0.02 µM) | relative viability ([1]; first compound 0.06325 µM) | relative viability ([1]; first compound 0.2 µM) | relative viability ([1]; first compound 0.6325 µM) | relative viability ([1]; first compound 2 µM) | relative viability ([2]; first compound 0.253 µM) | relative viability ([2]; first compound 0.8 µM) | relative viability ([2]; first compound 2.53 µM) | relative viability ([2]; first compound 8 µM) | relative viability ([3]; first compound 0.02 µM) | relative viability ([3]; first compound 0.06325 µM) | relative viability ([3]; first compound 0.2 µM) | relative viability ([3]; first compound 0.6325 µM) | relative viability ([3]; first compound 2 µM) | relative viability ([4]; first compound 0.02 µM) | relative viability ([4]; first compound 0.6325 µM) | relative viability ([4]; first compound 2 µM) | relative viability ([4]; first compound 0.06325 µM) | relative viability ([4]; first compound 0.2 µM)
1 | LCLC-97TM1 | 0.529 | 0.696 | 0.537 | 0.336 | 0.193 | 0.395 | 0.324 | 0.345 | 0.347 | 0.335 | 0.436 | 0.309 | 0.236 | 0.251 | 0.177 | 0.147 | 0.186 | – | –
2 | LCLC-103H | 1.1 | 0.947 | 1.05 | 1.25 | 1.06 | 0.401 | 0.392 | 0.449 | 0.427 | 0.763 | 0.773 | 0.777 | 0.816 | 0.772 | 0.733 | 0.714 | 0.54 | 0.567 | 0.666
3 | LOU-NH91 | 0.5 | 0.545 | 0.484 | 0.564 | 0.44 | 0.473 | 0.517 | 0.512 | 0.509 | 0.948 | 0.901 | 0.893 | 0.79 | 0.768 | 0.594 | 0.495 | 0.501 | 0.53 | 0.568
4 | LU99A | 1.11 | 1.04 | 1.08 | 0.94 | 0.761 | 0.517 | 0.674 | 0.728 | 0.509 | 0.278 | 0.216 | 0.211 | 0.171 | 0.19 | 0.343 | 0.258 | 0.221 | 0.317 | 0.295
5 | LXF-289 | 1.05 | 0.992 | 0.974 | 0.978 | 0.989 | 0.209 | 0.234 | 0.195 | 0.227 | 1.08 | 0.958 | 1.07 | 0.969 | 0.942 | 0.818 | 0.784 | 0.676 | 0.766 | 0.752
6 | NCI-H23 | 1.11 | 0.959 | 0.846 | 0.687 | 0.463 | 0.622 | – | 0.79 | 0.71 | 0.323 | 0.238 | 0.294 | 0.252 | 0.191 | 0.523 | 0.451 | 0.324 | 0.466 | 0.48
7 | NCI-H322M | 1.36 | 0.853 | 1.2 | 1.1 | 1.08 | 0.255 | 0.315 | 0.268 | 0.29 | 0.746 | 0.713 | 0.67 | 0.532 | 0.635 | 0.532 | 0.486 | 0.391 | 0.408 | 0.45
8 | NCI-H441 | 0.471 | 0.396 | 0.332 | 0.396 | 0.404 | 0.566 | 0.492 | 0.664 | 0.493 | 0.711 | 0.533 | 0.364 | 0.384 | 0.322 | 0.549 | 0.379 | 0.328 | 0.443 | 0.461
9 | NCI-H460 | 1.14 | 0.898 | 1.09 | 0.926 | 1.32 | 0.175 | 0.185 | 0.214 | 0.193 | 0.424 | 0.438 | 0.392 | 0.326 | 0.388 | 0.31 | 0.365 | 0.365 | 0.407 | 0.353
10 | NCI-H520 | 0.348 | 0.519 | 0.508 | 0.449 | 0.76 | 0.258 | – | 0.211 | 0.222 | 0.402 | 0.362 | 0.293 | 0.301 | 0.304 | 0.261 | 0.283 | 0.396 | 0.277 | 0.3
11 | NCI-H596 | 1.32 | 1.19 | 1 | 1.12 | 1.04 | 0.558 | 0.602 | 0.647 | 0.506 | 0.66 | 0.662 | 0.776 | 0.598 | 0.49 | 0.424 | 0.446 | 0.388 | 0.471 | 0.385
12 | NCI-H647 | 1.03 | 0.947 | 0.788 | 1.07 | 0.829 | 0.196 | 0.222 | 0.207 | 0.178 | 0.799 | 0.446 | 0.506 | 0.376 | 0.51 | 0.563 | 0.429 | 0.493 | 0.444 | 0.553
13 | NCI-H650 | 0.958 | 0.894 | 0.562 | 0.685 | 0.504 | 0.496 | 0.436 | 0.419 | 0.445 | 0.368 | 0.362 | 0.381 | 0.271 | 0.219 | 0.933 | 0.696 | 0.578 | 0.736 | 0.709
14 | NCI-H661 | 0.846 | 0.69 | 0.894 | 0.63 | 0.768 | 0.785 | 0.608 | – | 0.68 | 0.814 | 0.723 | 0.75 | 0.72 | 0.724 | 0.399 | 0.432 | 0.301 | 0.444 | 0.366
15 | NCI-H727 | 0.884 | 0.771 | 0.804 | 0.613 | 0.613 | 0.328 | – | 0.441 | 0.384 | 0.677 | 0.492 | 0.679 | 0.51 | 0.451 | 0.36 | 0.373 | 0.29 | 0.267 | 0.276
16 | NCI-H838 | 0.82 | 0.852 | 0.646 | 0.918 | 1.1 | 0.299 | 0.32 | 0.301 | 0.331 | 0.839 | 0.716 | 0.735 | 0.739 | 0.729 | 0.522 | 0.652 | 0.638 | 0.5 | 0.456
17 | NCI-H1355 | 1.2 | 1.14 | 1.09 | 0.987 | 1.07 | 0.314 | 0.526 | 0.781 | 0.585 | 0.731 | 0.662 | 0.649 | 0.587 | 0.607 | 0.449 | 0.329 | 0.354 | 0.441 | 0.352
